Values after ≈ are worked out from the molar mass of the structure shown. Active and inactive are the calls of the source. No cut-off for these calls is given here.
Assays:
[1] = tested on: THP-1; assay: Antiinflammatory activity in human PMA-stimulated THP1 cells assessed as inhibition of LPS-induced TNFalpha production at 10 uM treated 30 mins before LPS challenge measured after 24 hrs by ELISA; type: functional
[2] = tested on: THP-1; assay: Antiinflammatory activity in human PMA-stimulated THP1 cells assessed as inhibition of LPS-induced IL-6 production at 10 uM treated 30 mins before LPS challenge measured after 24 hrs by ELISA; type: functional
[3] = tested on: Staphylococcus aureus; assay: Antibacterial activity against Staphylococcus aureus up to 200 ug/ml by agar well diffusion method; type: functional, organism-based
[4] = tested on: Bacillus subtilis; assay: Antibacterial activity against Bacillus subtilis up to 200 ug/ml by agar well diffusion method; type: functional, organism-based
[5] = tested on: Escherichia coli; assay: Antibacterial activity against Escherichia coli up to 200 ug/ml by agar well diffusion method; type: functional, organism-based
[6] = tested on: Salmonella typhimurium; assay: Antibacterial activity against Salmonella typhimurium up to 200 ug/ml by agar well diffusion method; type: functional, organism-based; conditions: Salmonella enterica subsp. enterica serovar Typhimurium
[7] = tested on: Candida albicans; assay: Antifungal activity against Candida albicans by agar well diffusion method; type: functional
[8] = tested on: Aspergillus niger; assay: Antifungal activity against Aspergillus niger up to 200 ug/ml by agar well diffusion method; type: functional, organism-based
[9] = tested on: Fusarium solani; assay: Antifungal activity against Fusarium solani up to 200 ug/ml by agar well diffusion method; type: functional, organism-based
[10] = tested on: Aspergillus flavus; assay: Antifungal activity against Aspergillus flavus up to 200 ug/ml by agar well diffusion method; type: functional, organism-based
[11] = tested on: Staphylococcus aureus; assay: Antibacterial activity against Staphylococcus aureus by agar well diffusion method; type: functional
[12] = tested on: Bacillus subtilis; assay: Antibacterial activity against Bacillus subtilis by agar well diffusion method; type: functional
[13] = tested on: Escherichia coli; assay: Antibacterial activity against Escherichia coli by agar well diffusion method; type: functional
[14] = tested on: Salmonella typhimurium; assay: Antibacterial activity against Salmonella typhimurium by agar well diffusion method; type: functional, Salmonella enterica subsp. enterica serovar Typhimurium; conditions: Salmonella enterica
[15] = tested on: Fusarium solani; assay: Antifungal activity against Fusarium solani by agar well diffusion method; type: functional
[16] = tested on: Aspergillus flavus; assay: Antifungal activity against Aspergillus flavus by agar well diffusion method; type: functional
[17] = tested on: Candida albicans; assay: Antifungal activity against Candida albicans up to 200 ug/ml by agar well diffusion method; type: functional, organism-based
[18] = tested on: Aspergillus niger; assay: Antifungal activity against Aspergillus niger by agar well diffusion method; type: functional

Structure (SMILES)	MIC [7] [µg/mL]	MIC [11] [µg/mL]	MIC [12] [µg/mL]	MIC [13] [µg/mL]	MIC [14] [µg/mL]	MIC [15] [µg/mL]	MIC [16] [µg/mL]	MIC [18] [µg/mL]	inhibition at 10 µM [1] [%]	inhibition at 10 µM [2] [%]	Activity [3]	Activity [4]	Activity [5]	Activity [6]	Activity [8]	Activity [9]	Activity [10]	Activity [17]
CC1(C)OB(c2ccc([N+](=O)[O-])cc2)OC1(C)C	90 (≈ 361 µM)								0	0	inactive	inactive	inactive	inactive	inactive	inactive	inactive	
Cc1ccc(F)cc1S(=O)(=O)Nc1ccc(-c2cc(Nc3cccc(C(F)(F)F)c3)ncn2)cc1	90 (≈ 179 µM)	15 (≈ 29.9 µM)	10 (≈ 19.9 µM)	15 (≈ 29.9 µM)	15 (≈ 29.9 µM)	90 (≈ 179 µM)	90 (≈ 179 µM)		48	56					inactive			
O=[N+]([O-])c1ccc(-c2cc(Nc3cccc(C(F)(F)F)c3)ncn2)cc1									0	0	inactive	inactive	inactive	inactive	inactive	inactive	inactive	inactive
N#Cc1cccc(NC(=S)Nc2ccc(-c3cc(Nc4cccc(C(F)(F)F)c4)ncn3)cc2)c1	20 (≈ 40.8 µM)	90 (≈ 183 µM)		90 (≈ 183 µM)	90 (≈ 183 µM)	20 (≈ 40.8 µM)	20 (≈ 40.8 µM)	40 (≈ 81.5 µM)	11	16		inactive						
Cc1cccc(S(=O)(=O)Nc2ccc(-c3cc(Nc4cccc(C(F)(F)F)c4)ncn3)cc2)c1		90 (≈ 186 µM)		90 (≈ 186 µM)	90 (≈ 186 µM)				14	25		inactive			inactive	inactive	inactive	inactive
O=C(Nc1ccc(-c2cc(Nc3cccc(C(F)(F)F)c3)ncn2)cc1)Nc1cccc(C(F)(F)F)c1	25 (≈ 48.3 µM)	25 (≈ 48.3 µM)	40 (≈ 77.3 µM)	35 (≈ 67.6 µM)	80 (≈ 155 µM)	20 (≈ 38.7 µM)	20 (≈ 38.7 µM)	35 (≈ 67.6 µM)	28	40								
FC(F)(F)c1cccc(Nc2cc(-c3ccc(NC(=S)Nc4ccccc4C(F)(F)F)cc3)ncn2)c1	15 (≈ 28.1 µM)					15 (≈ 28.1 µM)	15 (≈ 28.1 µM)	25 (≈ 46.9 µM)	68	82	inactive	inactive	inactive	inactive				
N#Cc1cccc(S(=O)(=O)Nc2ccc(-c3cc(Nc4cccc(C(F)(F)F)c4)ncn3)cc2)c1	55 (≈ 111 µM)	40 (≈ 80.7 µM)	65 (≈ 131 µM)	25 (≈ 50.5 µM)	45 (≈ 90.8 µM)	20 (≈ 40.4 µM)	35 (≈ 70.6 µM)	20 (≈ 40.4 µM)	0	12								

Continued, in another order:

MIC [7] [µg/mL]	MIC [11] [µg/mL]	MIC [12] [µg/mL]	MIC [13] [µg/mL]	MIC [14] [µg/mL]	MIC [15] [µg/mL]	MIC [16] [µg/mL]	MIC [18] [µg/mL]	Structure (SMILES)	inhibition at 10 µM [1] [%]	inhibition at 10 µM [2] [%]	Activity [3]	Activity [4]	Activity [5]	Activity [6]	Activity [8]	Activity [9]	Activity [10]	Activity [17]
90 (≈ 150 µM)	20 (≈ 33.3 µM)	25 (≈ 41.6 µM)	25 (≈ 41.6 µM)	25 (≈ 41.6 µM)	75 (≈ 125 µM)			FC(F)(F)c1cccc(Nc2cc(-c3ccc(NC(=S)Nc4cc(C(F)(F)F)cc(C(F)(F)F)c4)cc3)ncn2)c1	0	0					inactive		inactive	
	35 (≈ 70 µM)	35 (≈ 70 µM)	30 (≈ 60 µM)	30 (≈ 60 µM)	90 (≈ 180 µM)			FC(F)(F)c1cccc(Nc2cc(-c3ccc(NC(=S)Nc4ccc(Cl)cc4)cc3)ncn2)c1	23	28					inactive		inactive	inactive
80 (≈ 242 µM)					90 (≈ 272 µM)	80 (≈ 242 µM)	80 (≈ 242 µM)	Nc1ccc(-c2cc(Nc3cccc(C(F)(F)F)c3)ncn2)cc1	0	6	inactive	inactive	inactive	inactive				
90 (≈ 179 µM)	90 (≈ 179 µM)							O=C(Nc1ccc(-c2cc(Nc3cccc(C(F)(F)F)c3)ncn2)cc1)Nc1cccc(Cl)c1F	78	96		inactive	inactive	inactive	inactive	inactive	inactive	
	15 (≈ 27.1 µM)	20 (≈ 36.1 µM)	15 (≈ 27.1 µM)	10 (≈ 18 µM)				O=S(=O)(Nc1ccc(-c2cc(Nc3cccc(C(F)(F)F)c3)ncn2)cc1)c1ccc(OC(F)(F)F)cc1	0	8					inactive	inactive	inactive	inactive
